Like-named read-outs stand apart in the source and are kept apart here. Numbered stars: 1 amine (or outer) side, 2 acyl side, 3 side chain; on linkers, the order of the positions; unused ones are H or OH. Square brackets hold non-standard residues; d marks the D form. Side chains are listed from the residue outwards. Peptide text beside a SMILES is read from it. * marks the point of attachment. C20 diacid = O=C(O)CCCCCCCCCCCCCCCCCCC(=O)*; γGlu = O=C(O)[C@H](CCC(=O)[*:2])N[*:1]; AEEA = NCCOCCOCC(=O)O; Aib = CC(C)(N)C(=O)O
Assays:
[1] = Fibril formation of crude library peptides (Thioflavin T); assay type: physicochemical; design: key: average ThT fluorescence emission at 480 nm (ex 450 nm), raw units; conditions: Physical stability of peptides
Summary of the method: (§1)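 Values reflect mean ThT emission (ex 450, em 480 nm) over 72 h at 40° C, read every 10 min after 5 min shaking at 700 rpm, plus a single initial absorbance at 600 nm for turbidity. Peptides were at 267 μM, pH 4.0 acetate or pH 7.0 phosphate (50 mM), with 4 μM ThT.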

GLP1R = GLP1R (Homo sapiens, UniProt P43220); test: hGLP1R potency, cAMP accumulation in CHO-K1 cells stably overexpressing hGLP1R; assay type: cell-based; design: host or cells: CHO-K1; conditions: for EC50: cAMP accumulation; for SCTR EC50/GLP1R EC50 ratio: cAMP accumulation in CHO-K1 cells; for Selectivity: SCTR EC50/GLP1R EC50 ratio
Chain of GLP1R (P43220 24-463): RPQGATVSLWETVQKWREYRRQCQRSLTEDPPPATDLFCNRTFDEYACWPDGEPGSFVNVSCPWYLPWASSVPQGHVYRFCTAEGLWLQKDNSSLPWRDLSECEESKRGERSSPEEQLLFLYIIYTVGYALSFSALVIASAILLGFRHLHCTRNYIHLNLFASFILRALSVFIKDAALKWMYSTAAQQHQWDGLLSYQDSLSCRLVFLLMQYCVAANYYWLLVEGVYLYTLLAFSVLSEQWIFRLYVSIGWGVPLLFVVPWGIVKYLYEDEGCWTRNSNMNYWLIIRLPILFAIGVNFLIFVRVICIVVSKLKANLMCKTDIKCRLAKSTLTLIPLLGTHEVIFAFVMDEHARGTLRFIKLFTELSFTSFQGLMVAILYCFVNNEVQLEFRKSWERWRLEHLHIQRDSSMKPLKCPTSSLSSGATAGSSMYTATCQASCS
Summary of the method: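 Potency reflects cAMP accumulation measured by time-resolved fluorescence energy transfer after a 30 min room-temperature stimulation in IBMX-containing (0.5 mM) DPBS with casein. Purified peptides were tested in duplicate over eleven threefold dilutions, and EC50 was obtained from sigmoid concentration-response fitting.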

[2] = Turbidity of crude library peptides (absorbance at 600 nm); assay type: physicochemical; conditions: Physical stability of peptides
Summary of the method: as §1

SCTR = SCTR (Homo sapiens, UniProt P47872); test: hSCTR potency, cAMP accumulation in CHO-K1 cells stably overexpressing hSCTR; assay type: cell-based; design: alternatively Euroscreen ES-712-AF; FAST-0161L; host or cells: CHO-K1; conditions: cAMP accumulation
Chain of SCTR (P47872 23-440): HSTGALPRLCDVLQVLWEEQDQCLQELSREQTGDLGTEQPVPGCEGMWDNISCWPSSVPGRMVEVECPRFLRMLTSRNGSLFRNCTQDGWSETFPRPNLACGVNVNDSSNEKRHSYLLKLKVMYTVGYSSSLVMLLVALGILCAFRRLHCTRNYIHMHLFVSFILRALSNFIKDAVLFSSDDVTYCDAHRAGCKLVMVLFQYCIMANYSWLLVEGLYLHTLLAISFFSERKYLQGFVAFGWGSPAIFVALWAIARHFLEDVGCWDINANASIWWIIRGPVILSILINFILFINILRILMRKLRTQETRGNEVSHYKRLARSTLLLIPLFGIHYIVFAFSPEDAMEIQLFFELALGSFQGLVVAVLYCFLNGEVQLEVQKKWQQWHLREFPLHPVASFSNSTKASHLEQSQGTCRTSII
Summary of the method: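 Potency reflects cAMP accumulation after 30 min agonist exposure at room temperature in hSCTR-expressing CHO-K1 cells, with 0.5 mM IBMX present to block phosphodiesterase. EC50 was derived by nonlinear regression.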

[3] = CHO-K1 cells stably overexpressing hGLP1R, read-out: hGLP1R potency (pEC50) (converted)
[4] = selectivity ratio, hSCTR vs hGLP1R
[5] = CHO-K1 cells stably overexpressing hSCTR, read-out: hSCTR potency (pEC50) (converted)
[6] = CHO-K1 cells overexpressing hGLP1R, read-out: pEC50 hGLPR1 (converted)
[7] = CHO-K1 cells overexpressing hSCTR, read-out: pEC50 hSCTR (converted)
[8] = CHO-K1 cells overexpressing hGLP1R, read-out: hGLP1R pEC50 (converted)
[9] = selectivity for hGLP1R over hSCTR
[10] = CHO-K1 cells overexpressing hSCTR, read-out: hSCTR pEC50 (converted)

Fibril formation [1] | EC50 (GLP1R; [3]) [nM] | SCTR EC50/GLP1R EC50 ratio (GLP1R; [4]) | Turbidity (pH 7) [2] | EC50 (SCTR; [5]) [nM] | Selectivity (GLP1R) | EC50 (GLP1R; [6]) [nM] | EC50 (SCTR; [7]) [nM] | EC50 (GLP1R; [8]) [nM] | SCTR EC50/GLP1R EC50 ratio (GLP1R; [9]) | EC50 (SCTR; [10]) [nM] | Structure (SMILES)
29535 | 0.126 | 383 | 0.54 | 50.1 |  |  |  |  |  |  | CC[C@H](C)[C@H](NC(=O)[C@H](Cc1ccccc1)NC(=O)[C@H](CCCNC(=N)N)NC(=O)[C@H](CCC(N)=O)NC(=O)[C@H](CC(C)C)NC(=O)[C@H](C)NC(=O)[C@H](C)NC(=O)CNC(=O)[C@H](CCC(=O)O)NC(=O)[C@H](CC(C)C)NC(=O)[C@H](CC(C)C)NC(=O)C(C)(C)NC(=O)[C@H](CO)NC(=O)[C@H](Cc1c[nH]c2ccccc12)NC(=O)[C@H](CC(=O)O)NC(=O)[C@H](CO)NC(=O)[C@@H](NC(=O)[C@H](Cc1ccccc1)NC(=O)[C@@H](NC(=O)CNC(=O)[C@H](CCC(=O)O)NC(=O)C(C)(C)NC(=O)[C@@H](N)Cc1c[nH]cn1)[C@@H](C)O)[C@@H](C)O)C(=O)N[C@@H](CCC(N)=O)C(=O)N[C@@H](Cc1c[nH]c2ccccc12)C(=O)N[C@@H](CC(C)C)C(=O)N[C@H](C(N)=O)C(C)C [compound 192] (H-H[Aib]EGTFTSDWS[Aib]LLEGAALQRFIQWLV-NH2)
8551 |  |  | 0.08 |  | 72127 | 0.0501 | 3980 |  |  |  | CC(C)C[C@H](NC(=O)[C@H](CCC(=O)O)NC(=O)[C@H](CCCCNC(=O)COCCOCCNC(=O)COCCOCCNC(=O)CC[C@H](NC(=O)CCCCCCCCCCCCCCCCCCC(=O)O)C(=O)O)NC(=O)[C@H](CC(C)C)NC(=O)[C@@H](NC(=O)[C@H](CO)NC(=O)[C@@H](NC(=O)[C@H](CC(=O)O)NC(=O)[C@H](CO)NC(=O)[C@@H](NC(=O)[C@H](Cc1ccccc1)NC(=O)[C@@H](NC(=O)CNC(=O)[C@H](CCC(=O)O)NC(=O)C(C)(C)NC(=O)[C@@H](N)Cc1c[nH]cn1)[C@@H](C)O)[C@@H](C)O)C(C)C)[C@@H](C)O)C(=O)N[C@@H](C)C(=O)N[C@@H](C)C(=O)N[C@@H](CCC(=O)O)C(=O)N[C@@H](CCC(N)=O)C(=O)N[C@@H](CCCNC(=N)N)C(=O)N[C@@H](Cc1ccccc1)C(=O)N[C@@H](CC(C)C)C(=O)N[C@@H](CCC(=O)O)C(=O)N[C@@H](Cc1c[nH]cn1)C(=O)N[C@@H](CC(C)C)C(=O)N[C@H](C(N)=O)C(C)C [compound 78] (H-H[Aib]EGTFTSDVSTLK([AEEA-AEEA-γGlu-C20 diacid])ELAAEQRFLEHLV-NH2)
6433 |  |  | 0.48 |  |  |  |  | 0.0398 | 459 | 15.8 | CC[C@H](C)[C@H](NC(=O)[C@H](Cc1ccccc1)NC(=O)[C@H](CCCNC(=N)N)NC(=O)[C@H](CCC(N)=O)NC(=O)[C@H](CC(C)C)NC(=O)[C@H](C)NC(=O)[C@H](C)NC(=O)CNC(=O)[C@H](CCC(=O)O)NC(=O)[C@H](CC(C)C)NC(=O)[C@H](CC(C)C)NC(=O)[C@H](CCCNC(=N)N)NC(=O)[C@H](CO)NC(=O)[C@@H](NC(=O)[C@H](CC(=O)O)NC(=O)[C@H](CO)NC(=O)[C@@H](NC(=O)[C@H](Cc1ccccc1)NC(=O)[C@@H](NC(=O)CNC(=O)[C@H](CCC(=O)O)NC(=O)C(C)(C)NC(=O)[C@@H](N)Cc1c[nH]cn1)[C@@H](C)O)[C@@H](C)O)[C@@H](C)CC)C(=O)N[C@@H](CCC(N)=O)C(=O)N[C@@H](Cc1c[nH]c2ccccc12)C(=O)N[C@@H](CC(C)C)C(=O)N[C@H](C(N)=O)C(C)C [compound 115] (H-H[Aib]EGTFTSDISRLLEGAALQRFIQWLV-NH2)
14469 |  |  | 0.08 |  |  |  |  | 0.02 | 81527 | 2000 | CC(C)C[C@H](NC(=O)[C@H](Cc1ccccc1)NC(=O)[C@H](CCCNC(=N)N)NC(=O)[C@H](CCC(N)=O)NC(=O)[C@H](CCC(=O)O)NC(=O)[C@H](C)NC(=O)[C@H](C)NC(=O)[C@H](Cc1ccccc1)NC(=O)[C@H](CCC(=O)O)NC(=O)[C@H](CCCCNC(=O)COCCOCCNC(=O)COCCOCCNC(=O)CC[C@H](NC(=O)CCCCCCCCCCCCCCCCCCC(=O)O)C(=O)O)NC(=O)[C@H](CC(C)C)NC(=O)[C@@H](NC(=O)[C@H](CO)NC(=O)[C@@H](NC(=O)[C@H](CC(=O)O)NC(=O)[C@H](CO)NC(=O)[C@@H](NC(=O)[C@H](Cc1ccccc1)NC(=O)[C@@H](NC(=O)CNC(=O)[C@H](CCC(=O)O)NC(=O)C(C)(C)NC(=O)[C@@H](N)Cc1c[nH]cn1)[C@@H](C)O)[C@@H](C)O)C(C)C)[C@@H](C)O)C(=O)N[C@@H](CCC(=O)O)C(=O)N[C@@H](Cc1c[nH]cn1)C(=O)N[C@@H](CC(C)C)C(=O)N[C@H](C(N)=O)C(C)C [compound 89] (H-H[Aib]EGTFTSDVSTLK([AEEA-AEEA-γGlu-C20 diacid])EFAAEQRFLEHLV-NH2)
16121 |  |  | 0.08 |  | 11130 | 0.0316 | 316 |  |  |  | CC(C)C[C@H](NC(=O)[C@H](Cc1ccccc1)NC(=O)[C@H](CCCNC(=N)N)NC(=O)[C@H](CCC(N)=O)NC(=O)[C@@H](NC(=O)[C@H](C)NC(=O)[C@H](C)NC(=O)C(C)(C)NC(=O)[C@H](CCC(=O)O)NC(=O)[C@H](CCCCNC(=O)COCCOCCNC(=O)COCCOCCNC(=O)CC[C@H](NC(=O)CCCCCCCCCCCCCCCCCCC(=O)O)C(=O)O)NC(=O)[C@H](CC(C)C)NC(=O)[C@H](Cc1ccccc1)NC(=O)[C@H](CO)NC(=O)[C@@H](NC(=O)[C@H](CC(=O)O)NC(=O)[C@H](CO)NC(=O)[C@@H](NC(=O)[C@H](Cc1ccccc1)NC(=O)[C@@H](NC(=O)CNC(=O)[C@H](CCC(=O)O)NC(=O)C(C)(C)NC(=O)[C@@H](N)Cc1c[nH]cn1)[C@@H](C)O)[C@@H](C)O)C(C)C)[C@@H](C)O)C(=O)N[C@@H](CCC(=O)O)C(=O)N[C@@H](Cc1c[nH]cn1)C(=O)N[C@@H](CC(C)C)C(=O)N[C@H](C(N)=O)C(C)C [compound 13] (H-H[Aib]EGTFTSDVSFLK([AEEA-AEEA-γGlu-C20 diacid])E[Aib]AATQRFLEHLV-NH2)
48618 | 0.0126 | 478 | 1.04 | 6.31 |  |  |  |  |  |  | CC[C@H](C)[C@H](NC(=O)[C@H](Cc1ccccc1)NC(=O)[C@H](CCCNC(=N)N)NC(=O)[C@H](CCC(N)=O)NC(=O)[C@H](CC(C)C)NC(=O)[C@H](C)NC(=O)[C@H](C)NC(=O)CNC(=O)[C@H](CCC(=O)O)NC(=O)[C@H](CC(C)C)NC(=O)[C@H](CC(C)C)NC(=O)[C@H](CCCNC(=N)N)NC(=O)[C@H](CO)NC(=O)[C@H](Cc1c[nH]c2ccccc12)NC(=O)[C@H](CC(=O)O)NC(=O)[C@H](CO)NC(=O)[C@@H](NC(=O)[C@H](Cc1ccccc1)NC(=O)[C@@H](NC(=O)CNC(=O)[C@H](CCC(=O)O)NC(=O)C(C)(C)NC(=O)[C@@H](N)Cc1c[nH]cn1)[C@@H](C)O)[C@@H](C)O)C(=O)N[C@@H](CCC(N)=O)C(=O)N[C@@H](Cc1c[nH]c2ccccc12)C(=O)N[C@@H](CC(C)C)C(=O)N[C@H](C(N)=O)C(C)C [compound 186] (H-H[Aib]EGTFTSDWSRLLEGAALQRFIQWLV-NH2)
12180 |  |  | 0.08 |  | 21943 | 0.02 | 398 |  |  |  | CC(C)C[C@H](NC(=O)[C@H](Cc1ccccc1)NC(=O)[C@H](CCCNC(=N)N)NC(=O)[C@H](CCC(N)=O)NC(=O)[C@H](CCC(N)=O)NC(=O)[C@H](C)NC(=O)[C@H](C)NC(=O)C(C)(C)NC(=O)[C@H](CCC(=O)O)NC(=O)[C@H](CCCCNC(=O)COCCOCCNC(=O)COCCOCCNC(=O)CC[C@H](NC(=O)CCCCCCCCCCCCCCCCCCC(=O)O)C(=O)O)NC(=O)[C@H](CC(C)C)NC(=O)[C@@H](NC(=O)[C@H](CO)NC(=O)[C@@H](NC(=O)[C@H](CC(=O)O)NC(=O)[C@H](CO)NC(=O)[C@@H](NC(=O)[C@H](Cc1ccccc1)NC(=O)[C@@H](NC(=O)CNC(=O)[C@H](CCC(=O)O)NC(=O)C(C)(C)NC(=O)[C@@H](N)Cc1c[nH]cn1)[C@@H](C)O)[C@@H](C)O)C(C)C)C(C)C)C(=O)N[C@@H](CCC(=O)O)C(=O)N[C@@H](Cc1c[nH]cn1)C(=O)N[C@@H](CC(C)C)C(=O)N[C@H](C(N)=O)C(C)C [compound 40] (H-H[Aib]EGTFTSDVSVLK([AEEA-AEEA-γGlu-C20 diacid])E[Aib]AAQQRFLEHLV-NH2)

Reference: patent publication US20260201008A1, “SECRETIN-DERIVED GLP1R SELECTIVE AGONISTS” (GUBRA A/S, priority 2023, published 2026)
